The results in this text go back to patent publication US5919765A, “Inhibitors of factor XA” (COR Therapeutics, Inc., priority 1995, dated 1999).

The structures appear in SMILES notation. Numbered stars: 1 amine (or outer) side, 2 acyl side, 3 side chain; on linkers, the order of the positions; unused ones are H or OH. Square brackets hold non-standard residues; d marks the D form. Peptide text beside a SMILES is read from it. * marks the point of attachment. dCit = NC(=O)NCCC[C@@H](N)C(=O)O; Suc = O=C(CCC(=O)[*:2])[*:1]; Boc = CC(C)(C)OC(=O)*; Aib = CC(C)(N)C(=O)O

The target of one data set is T1, thrombin (Homo sapiens, UniProt P00734).
T1 construct: The formation of thrombin is the result of the proteolytic cleavage of its precursor prothrombin
In words: Thrombin amidolytic assay (chromogenic substrate Chromozym TH). It is filed as biochemical. The following applies: read-out: Inhibitory Activity (IC50) Thrombin.

The subject of data set [1] is Rabbits. As to the kind of experiment: Rabbit deep vein thrombosis model. The format is in vivo. The text has this:
Haemost. […] Rabbits were anesthetized with I.M. injections of Ketamine, Xylazine, and Acepromazine cocktail.

The subject of data set [2] is Rabbits. As to the kind of experiment: Cuticle Bleeding Time model in rabbits. The format is in vivo, rabbit. The following applies: 1500 μg/kg+14.85 μg/kg/min. Here is the method: In an ancillary study, a Cuticle Bleeding Time model was used to evaluate the effect of test compounds on bleeding time (BT) measurements in rabbits. The standardized protocol involved anesthesia and catheterization of rabbits as previously described in this Example 43. To measure BT, a toe nail was cut 5 mm from the base of the cuticle with a canine nail trimming device. Time until cessation of bleeding was recorded by wicking the blood on to BT blotting paper in 30 second intervals. Test compound was administered as a bolus followed by infusion regimen. Two BT measurements were obtained prior to administration of test compound and three BT measurements accomplished serially after initiation of steady state infusion of test compound. BT measurements were allowed to continue for up to 30 minutes at which time it was stopped with application of silver nitrate. Blood samples were obtained just prior to all BT measurements and processed for measurement of hematological and coagulation parameters.

The mark [3] stands for this setting: rabbit venous thrombosis model, bolus + infusion.

The term IC50 denotes the concentration that gives 50% inhibition. In the case of `CC(C)(C)OC(=O)N[C@H](CCCCN)C(=O)NCC(=O)N[C@H](C=O)CCCNC(=N)N` [Boc--D--Lys--Gly--Arg--H, Boc-D-Lys-Gly-Arg--H] (Boc-[dK]-Gly-Arg-aldehyde), the half-inhibitory concentration (IC50) at thrombin is more than 100 µM.

For the compound `CC(C)(C)OC(=O)N[C@H](CCCNC(=N)N)C(=O)NCC(=O)N[C@H](C=O)CCCNC(=N)N` [Boc--D--Arg--Gly--Arg--H, Boc-D-Arg-Gly-Arg--H] (Boc-[dR]-Gly-Arg-aldehyde), the “% Inhibition of Thrombosis” value is 8.4% in the data set with Rabbits [1] (200 + 1.98 μg/kg + μg/kg/min) and -6.6% in the data set on Rabbits [1] (600 + 5.94 μg/kg + μg/kg/min). The antithrombotic efficacy entry in the data set with Rabbits [1] (setting [3]) is “demonstrated antithrombotic efficacy at the higher doses evaluated”.

As to `CC(C)(C)OC(=O)N[C@H](CCCNC(=N)N)C(=O)NC(C)(C)C(=O)N[C@H](C=O)CCCNC(=N)N` [Boc--D--Arg--Aib--Arg--H, Boc-D-Arg-Aib-Arg--H] (Boc-[dR]-[Aib]-Arg-aldehyde), the IC50 on thrombin is more than 500 µM.

Consider `N=C(N)NCCC[C@@H](C=O)NC(=O)CNC(=O)[C@@H](CCCNC(=N)N)NC(=O)CCC(=O)O` [HOOC(CH2)2 CO--D--Arg--Gly--Arg--H, Succinoyl-D-Arg-Gly-Arg--H] (Suc-[dR]-Gly-Arg-aldehyde), for which, on thrombin, the IC50 was more than 100 µM.

For the compound `N=C(N)NCCC[C@@H](C=O)NC(=O)CNC(=O)[C@@H](CCCNC(=N)N)NC(=O)CC(=O)O` [HOOCCH2 CO--D--Arg--Gly--Arg--H, Malonoyl-D-Arg-Gly-Arg--H], the IC50 at thrombin is more than 100 µM.

With `CC(C)(C)OC(=O)N[C@H](CCCN=C(N)N)C(=O)NCC(=O)N[C@H](C=O)CCCN=C(N)N` [Boc--D--Arg--Gly--Arg--H, Boc-D-Arg-Gly-Arg--H] (Boc-[dR]-Gly-Arg-aldehyde), in the data set on Rabbits [1] (setting [3]), the “effects on hematological parameters as compared to saline controls” value is reported as “no significant effects”. Moreover, the “changes in hematological parameters from pre to post administration” value in the data set on Rabbits [2] is “no significant changes”.

With `CC(C)(C)OC(=O)N[C@H](CCCNC(N)=O)C(=O)NCC(=O)N[C@H](C=O)CCCNC(=N)N` [Boc--D--Cit--Gly--Arg--H, Boc-D-Cit-Gly-Arg--H] (Boc-[dCit]-Gly-Arg-aldehyde), the IC50 at thrombin is more than 100 µM.

For `CCOC(=O)N[C@H](CCCNC(=N)N)C(=O)NCC(=O)N[C@H](C=O)CCCNC(=N)N` [EtOCO--D--Arg--Gly--Arg--H, EtO2 C-D-Arg-Gly-Arg--H], the IC50 at thrombin is more than 100 µM.
